Measured values published in the NIST ThermoML archive (doi:10.1021/je700740e).
Numbers after ± are expanded uncertainties.

Conditions: Liquid; for mass density: Vibrating tube method; for viscosity: Vibrating wire viscometry

Cc1ccccc1 [toluene]
Conditions | mass density, 298.15 K [kg/m3] | mass density, 323.15 K [kg/m3] | viscosity, 298.15 K [mPa·s] | viscosity, 323.15 K [mPa·s]
100 kPa | 862.5 ± 1.7 | – | 0.555 ± 0.012 | –
120 kPa | – | 840.467 ± 1.7 | – | 0.425 ± 0.01
2300 kPa | 864.389 ± 1.7 | – | 0.569 ± 0.013 | –
3340 kPa | – | 843.459 ± 1.7 | – | 0.431 ± 0.01
4400 kPa | 865.888 ± 1.7 | – | 0.58 ± 0.013 | –
6340 kPa | – | 846.144 ± 1.7 | – | 0.448 ± 0.01
7430 kPa | 868.038 ± 1.7 | – | 0.593 ± 0.013 | –
9600 kPa | – | 848.793 ± 1.7 | – | 0.461 ± 0.011
10400 kPa | 870.54 ± 1.8 | – | 0.597 ± 0.013 | –
12470 kPa | 871.736 ± 1.8 | – | 0.613 ± 0.014 | –
12750 kPa | – | 851.586 ± 1.7 | – | 0.464 ± 0.011
14490 kPa | 873.496 ± 1.8 | – | 0.617 ± 0.014 | –
14770 kPa | – | 853.276 ± 1.7 | – | 0.466 ± 0.011

CCOC(=O)CCCCC(=O)OCC [diethyl hexanedioate]
Conditions | mass density [kg/m3] | viscosity [mPa·s]
303.15 K, 100 kPa | 998.842 ± 2 | 2.786 ± 0.059
303.15 K, 4520 kPa | 1001.81 ± 2 | 2.909 ± 0.062
303.15 K, 9610 kPa | 1005.24 ± 2 | 3.061 ± 0.065
303.15 K, 14700 kPa | 1008.51 ± 2 | 3.226 ± 0.068
303.15 K, 19790 kPa | 1012.52 ± 2 | 3.343 ± 0.071
313.15 K, 100 kPa | 989.86 ± 2 | 2.257 ± 0.048
313.15 K, 4520 kPa | 993.535 ± 2 | 2.335 ± 0.05
313.15 K, 9630 kPa | 996.693 ± 2 | 2.472 ± 0.053
313.15 K, 14750 kPa | 1000.42 ± 2 | 2.589 ± 0.055
313.15 K, 19890 kPa | 1003.55 ± 2 | 2.726 ± 0.058
323.15 K, 100 kPa | 981.395 ± 2 | 1.846 ± 0.039
323.15 K, 4520 kPa | 984.72 ± 2 | 1.932 ± 0.041
323.15 K, 9600 kPa | 988.74 ± 2 | 2.021 ± 0.043
323.15 K, 14690 kPa | 992.273 ± 2 | 2.126 ± 0.045
323.15 K, 19710 kPa | 995.581 ± 2 | 2.23 ± 0.048
333.15 K, 100 kPa | 971.597 ± 2 | 1.58 ± 0.034
333.15 K, 4520 kPa | 975.516 ± 2 | 1.642 ± 0.035
333.15 K, 9630 kPa | 979.685 ± 2 | 1.716 ± 0.037
333.15 K, 14710 kPa | 983.483 ± 2 | 1.802 ± 0.039
333.15 K, 19710 kPa | 987.107 ± 2 | 1.886 ± 0.04
343.15 K, 100 kPa | 962.622 ± 1.9 | 1.35 ± 0.029
343.15 K, 4510 kPa | 966.544 ± 2 | 1.407 ± 0.03
343.15 K, 9600 kPa | 970.932 ± 2 | 1.471 ± 0.032
343.15 K, 14700 kPa | 975.031 ± 2 | 1.542 ± 0.033
343.15 K, 19700 kPa | 978.932 ± 2 | 1.608 ± 0.035
353.15 K, 100 kPa | 953.224 ± 1.9 | 1.179 ± 0.026
353.15 K, 4520 kPa | 957.353 ± 1.9 | 1.227 ± 0.027
353.15 K, 9620 kPa | 962.118 ± 1.9 | 1.28 ± 0.028
353.15 K, 14710 kPa | 966.479 ± 2 | 1.338 ± 0.029
353.15 K, 19680 kPa | 970.392 ± 2 | 1.402 ± 0.03
363.15 K, 100 kPa | 943.203 ± 1.9 | 1.041 ± 0.023
363.15 K, 4520 kPa | 948.203 ± 1.9 | 1.078 ± 0.023
363.15 K, 9610 kPa | 953.106 ± 1.9 | 1.129 ± 0.025
363.15 K, 14700 kPa | 957.919 ± 1.9 | 1.174 ± 0.025
363.15 K, 19710 kPa | 962.125 ± 1.9 | 1.226 ± 0.027
373.15 K, 100 kPa | 934.753 ± 1.9 | 0.914 ± 0.02
373.15 K, 4520 kPa | 939.138 ± 1.9 | 0.956 ± 0.021
373.15 K, 9620 kPa | 944.359 ± 1.9 | 1 ± 0.022
373.15 K, 14680 kPa | 948.986 ± 1.9 | 1.046 ± 0.023
373.15 K, 19910 kPa | 953.741 ± 1.9 | 1.096 ± 0.024
